{
  "source": "patent US20220095615A1",
  "about": "“NEMATODE DETERRENT COMPOSITIONS” (SALK INSTITUTE FOR BIOLOGICAL STUDIES, priority 2018, published 2022)",
  "key": {"C. elegans [1]": {"tested_on": "C. elegans", "conditions": "literature reference; cited from earlier work"}, "C. elegans [2]": {"tested_on": "C. elegans", "experiment": "Single animal avoidance assay (avoidance index)", "assay_type": "in vivo, Caenorhabditis elegans", "conditions": "for activity of synthetic sulfolipids in the avoidance assay: synthetic compounds, FIG. 10a", "method": "Adult C. elegans were exposed to a small volume of a test compound (0.05 μl) near the head of the animal. Upon sensing a repellent, animals initiate a reversal followed by an omega bend. Positive responses to a test compound were scored only if they occurred within 4 s. Results are shown as the avoidance index, which is the ratio of number of positive responses to the total number of trials. Each animal is tested thrice and data is presented as average of the animals tested on at least 3 days (FIGS. 1-4 and FIGS. 8-13). For Data in FIG. 18b, animals were pre-treated with various drugs at 100 μM for 30 min and then their responses to predator cue were analyzed. Each assay was performed in triplicate (5 animals per condition) and on at least 3 different days […]. For Data shown in FIG. 4, animals were pre-treated with 1 mM Sertraline (Sigma) or M9 control for 3 min before being tested for their responses in the avoidance assay. We also performed additional controls to test whether an animal's response to the three repellent trials were independent.\nTwo-tailed unpaired t-tests were used to compare different strains, genotypes, and conditions, and the Bonferroni correction was used to adjust for multiple comparisons. Avoidance indices of all strains tested and controls are shown in Supplementary Table S7 of Liu et al., Nature Communications 9: 1128 (2018)).\nAdult nematodes were exposed to a small volume of a test compound (0.05 μl) near the head of the animal. Upon sensing a repellent, animals initiate a reversal followed by an omega bend. Positive responses to a test compound were scored only if they occurred within 4 s. Results are shown as the avoidance index, which is the ratio of number of positive responses to the total number of trials. Each animal is tested thrice and data is presented as average of the animals tested on at least 3 days."}, "C. elegans [3]": {"tested_on": "C. elegans", "experiment": "Egg-laying assay", "assay_type": "in vivo, Caenorhabditis elegans", "conditions": "predator cue with sertraline (1 mM) for 30 min, egg-laying monitored 60 min after removal, FIG. 4f", "method": "Synchronized Day 1 adults were treated with M9 control buffer or concentrated predator cue for 30 min. These animals were transferred to a 2-day lawn of 100 μl OP50 bacteria (OD600=0.5) and allowed to lay eggs. Eggs were counted at the time intervals shown. In each condition and genotype, at least 35 animals were analyzed. Average number of eggs and s.e.m. are presented with two-tailed unpaired t-tests with Bonferroni correction for statistical analysis. To test the effect of sulfolipids on egg-laying behavior, these compounds were dissolved in DMSO and further diluted in M9 to obtain the concentrations indicated. Sertraline effects were analyzed by exposing animals to predator cue with or without sertraline (1 mM) for 30 min."}, "C. elegans [4]": {"tested_on": "C. elegans", "experiment": "Chemotaxis assay for volatile components", "assay_type": "in vivo, Caenorhabditis elegans", "conditions": "Benzaldehyde 1:200, 2-nonanone undiluted, 60 min, FIG. 8D", "method": "Chemotaxis assays were performed on 2% agar square (10 cm) plates containing 5 mM potassium phosphate (pH 6), 1 mM CaCl2, and 1 mM MgSO4. Animals were washed three times in M9 and once in chemotaxis buffer (5 mM potassium phosphate (pH 6), 1 mM CaCl2, and 1 mM MgSO4) and then placed in the middle of the plate (FIG. 8c). Two spots of the collected nematode secretions and two control M9 spots (all 1 μl) were added to opposite sides of the plate, generating gradients of any volatile components in the nematode secretions. Animals were allowed to explore these gradients for 1 h, after which they were counted and the chemotaxis index calculated (FIG. 8d). Benzaldehyde (1:200) and 2-nonanone (undiluted) were used as control attractants and repellents, respectively^25. Nine or more assays were performed on at least three different days. Two-tailed unpaired t-tests were used to compare C. elegans responses to different secretions, and the Bonferroni correction was used to adjust for multiple comparisons."}},
  "note": "Counter-ions that a name gives are not always drawn.",
  "data": [
    {"smiles": "CCCCCCCCCCCCOS(=O)(=O)[O-].[Na+]", "note": "[SDS, sodium dodecyl sulfate]", "values": [
      {"measurement": "C. elegans avoidance cue potency", "setting": "C. elegans [1]", "result": "potent"}
    ]},
    {"smiles": "CN[C@H]1CC[C@@H](c2ccc(Cl)c(Cl)c2)c2ccccc21", "note": "[sertraline]", "values": [
      {"measurement": "duration of the drug effects (decay of the sertraline effect)", "setting": "C. elegans [2]; predator cue, FIG. 13C legend", "result": "about 30 minutes"},
      {"measurement": "concentration dependence of suppression of avoidance behavior", "setting": "C. elegans [2]; predator cue, FIG. 13b", "result": "dependent on drug concentration"},
      {"measurement": "duration of suppression of avoidance after the drug was removed", "setting": "C. elegans [2]; predator cue, FIG. 13c", "result": "at least 30 min"},
      {"measurement": "sertraline modulation of avoidance in eat-4 mutants", "setting": "C. elegans [2]; predator cue, eat-4 (vesicular glutamate transporter) mutants, FIG. 4c", "result": "significant sertraline-induced modulation of avoidance behavior"},
      {"measurement": "sertraline effect on behavior of tax-4 or ocr-2 mutants", "setting": "C. elegans [2]; predator cue, tax-4 or ocr-2 mutants, FIG. 4b", "result": "no detectable effect"},
      {"measurement": "sertraline attenuation in unc-25 mutants", "setting": "C. elegans [2]; predator cue, unc-25 (glutamic acid decarboxylase) mutants, FIG. 4c", "result": "defective in sertraline attenuation"},
      {"measurement": "sertraline effect on avoidance to predator cue", "setting": "C. elegans [2]; wild-type, pre-treated with sertraline (1 mM), FIG. 4a", "result": "attenuated avoidance"},
      {"measurement": "sertraline effect on avoidance responses to fructose", "setting": "C. elegans [2]; wild-type, pre-treated with sertraline, FIG. 4a", "result": "attenuated avoidance responses"},
      {"measurement": "sertraline effect on avoidance to purified sulfolipids", "setting": "C. elegans [2]; wild-type, pre-treated with sertraline, FIG. 13a", "result": "attenuated avoidance"},
      {"measurement": "sertraline effect on predator cue-induced egg-laying response", "setting": "C. elegans [3]", "result": "reduced the longer-lasting egg-laying response"}
    ]},
    {"smiles": "O=Cc1ccccc1", "note": "[Benzaldehyde]", "values": [
      {"measurement": "chemotaxis response to control attractant and repellent", "setting": "C. elegans [4]", "result": "strong responses"}
    ]},
    {"smiles": "CC(C)CCC(CCCCCCCCCO)OS(=O)(=O)O", "note": "(stereo not drawn) [sufal #1, 14-hydroxy-2-methyltetradecan-5-yl Hydrogen Sulfate]", "values": [
      {"measurement": "activity of synthetic sulfolipids in the avoidance assay", "setting": "C. elegans [2]", "result": "accounted for most of the isolated activity"}
    ]},
    {"smiles": "CC(C)CCCC(CCCCCCCCO)OS(=O)(=O)O", "note": "(stereo not drawn) [sufal #2, 14-hydroxy-2-methyltetradecan-6-yl Hydrogen Sulfate]", "values": [
      {"measurement": "activity of synthetic sulfolipids in the avoidance assay", "setting": "C. elegans [2]", "result": "accounted for most of the isolated activity"}
    ]},
    {"smiles": "CCCCCCCC(C)=O", "note": "[Sulfolipid 2-nonanone, 2-nonanone]", "values": [
      {"measurement": "chemotaxis response to control attractant and repellent", "setting": "C. elegans [4]", "result": "strong responses"}
    ]}
  ]
}
